Experimental data published in US12195741B2, “Creation of herbicide resistant gene and use thereof” (INSTITUTE OF GENETICS AND DEVELOPMENTAL BIOLOGY, CHINESE …, priority 2017, dated 2025).

What was measured:
[1] = test system: wild type wheat tissue culture seedlings; experiment: Establishing resistance screening conditions: herbicide concentration inhibiting growth of wild type wheat seedlings; type: in vivo; conditions: minimum herbicide concentration inhibiting plant growth, 1/2 MS medium, after 7 days
Experimental: (§1) Herbicides listed in Table 5 were selected, and ½ MS medium containing different concentrations of herbicides was prepared for screening wild type rice and wheat tissue culture seedlings. After 7 days, the minimum herbicide concentrations inhibiting plant growth were selected for subsequent screen of transformed plants.

[2] = test system: wild type rice tissue culture seedlings; experiment: Establishing resistance screening conditions: herbicide concentration inhibiting growth of wild type rice seedlings; type: in vivo; conditions: minimum herbicide concentration inhibiting plant growth, 1/2 MS medium, after 7 days
Experimental: as §1

| SMILES | Selection concentration for wheat (PPM) [1] | Selection concentration for rice (PPM) [2] |
| --- | --- | --- |
| COC(=O)[C@@H](C)Oc1ccc(Oc2ncc(C(F)(F)F)cc2Cl)cc1 [Haloxyfop-R-methyl] | 0.036 PPM | 0.036 PPM |
| COc1cc(OC)nc(NC(=O)NS(=O)(=O)c2ncccc2C(=O)N(C)C)n1 [Nicosulfuron] | 0.13 PPM | 0.012 PPM |
| CCCCOC(=O)[C@@H](C)Oc1ccc(Oc2ccc(C#N)cc2F)cc1 [cyhalofop-butyl] |  | 5.3 PPM |
| CCOC(=O)[C@@H](C)Oc1ccc(Oc2nc3ccc(Cl)cc3o2)cc1 [fenoxaprop-P-ethyl] |  | 4.5 PPM |
| CCC/C(=N\OCC)C1=C(O)CC(CC(C)SCC)CC1=O (centres unmarked) [sethoxydim] | 0.33 PPM | 0.33 PPM |
